According to patent US9250249B2, “Autophagy and phospholipidosis pathway assays” (Enzo Biochem, Inc., priority 2008, dated 2016):
Where two headings read alike, the source gives them in different places.

Key:
U2OS cells [1] = assay: Lipid-Tox fluorescent phospholipid analog-based phospholipidosis assay; assay type: cell-based, human; conditions: 24 hours co-incubation with Lipid-Tox dye and drug
Procedure: Many assays of phospholipidosis, including the Lipid-Tox assay (Invitrogen, Carlsbad, Calif.), are based upon co-incubating cells with a fluorescent phospholipid analog for an extended period of time, along with the drug or test agent being evaluated, and then monitoring signal generation in fixed and permeabilized cells. Dye 1 is not a fluorescent phospholipid analog, but instead is a cationic amphiphilic fluorophore tracer. Cells are incubated with the drug or test agent in isolation and then briefly treated with the tracer dye before evaluation in live cells. […] Choloroquine, a prototypical phospholipidosis-inducing agent, and bafilomycin A, an agent well known to induce the accumulation of autophagosomes, were evaluated using both Dye 1 and Lipid-Tox dye-based assays (FIG. 3). […] Cells stained with Lipid-Tox dye (solid triangles dash-dot line) were incubated in the presence of the fluorescent lipid for 24 hours during treatment with the drugs.

U2OS cells [2] = assay: Multiplexed CF-PE / Dye 1 / Hoechst 33342 microplate assay distinguishing phospholipidosis from autophagy pathway inhibition; assay type: cell-based, human; conditions: 24 h with CF-PE medium and test compound; for green signal (CF-PE) relative to vehicle-treated controls: ex 492 nm, em 517 nm; for red signal (Dye 1) relative to vehicle-treated controls: then Dye 1 15 min
Procedure: For example, CF-PE was suspended in ethanol and diluted in the cell culture medium (McCoy's 5a modified medium, as described in Example 3) to give a solution (CF-PE medium) with final concentration of 50 μM (0.46% ethanol). […] medium was then sonicated and filtered through a […] filter. The prepared was then applied to U2OS cells growing in a 96-well microplate. After an equilibration period of 24 h, the cell culture medium was replaced with CF-PE medium with or without each test compound, and the cells were incubated at 37° C. for an additional 24 h. After incubation, the cells were rinsed with medium and further incubated with the same medium containing Dye 1 and Hoechst 33342 dye for an additional 15 min at 37° C. in 5% CO2 atmosphere.
Fluorescence signal was determined using a standard microplate reader, as described in example 4, except that CF-PE was additionally read at an excitation wavelength of 492 nm and an emission wavelength of 517 nm. […] Generalized cytotoxicity is evident as a substantial decrease in blue signal (≧30%) relative to vehicle-treated control cells.

U2OS cells [3] = assay: Cell number per well by Hoechst 33342 fluorescence (generalized compound toxicity); conditions: for Relative Hoechst Stain (intensity of Hoechst 33342 fluorescence of treated cells compared to the untreated control; number of cells remaining): 18 hours, single concentration per compound; for generalized cellular toxicity (loss of cells / decrease in Hoechst 33342 signal): greater than 30% decrease in cell number flagged as toxic
Procedure: (§2) Fluorescence intensity of the cells cultured on the 96-well plates was measured using a FLUOstar OPTIMA Multifunction Microplate Reader (BMG LabTech, Offenburg, Germany). […] Fluorescence intensity was expressed as percentage of the vehicle control value.
(§3) In the preliminary screen, test agents were employed at a single dose in an effort to identify any potential lysosome-modifying agents.

U2OS cells [4] = assay: Fluorescence microplate-based lysosomal perturbation assay (Dye 1 fluorescence), incl. ICCB library screen; conditions: for Relative Lyso Stain (intensity of Dye 1 fluorescence of treated cells compared to the untreated control): 18 hours, single concentration per compound; for vacuolation / expansion of lysosomal compartment detected by Dye 1 assay: Dye 1 stained post drug incubation; for hit call in ICCB library screen (Dye 1 accumulation): ICCB known bioactives library screen
Procedure: In order to increase throughput and reduce handling time, the fluorescence microscopy-based lysosomal perturbation assay was scaled up to a 96-well microplate plate assay format and analyzed using a fluorescence microplate reader.
as §2, §3

[5] = pH dependence of Dye 1 fluorescence; assay type: physicochemical; conditions: pH range of 4.0 to 9.0
cultured cells = conditions: high micromolar concentrations; cited from earlier work
U2OS cells [6] = conditions: for Relative Hoechst Stain (intensity of Hoechst 33342 fluorescence of treated cells compared to the untreated control; number of cells remaining): human, 18 h
Procedure: as §2, §3

[7] = tested on: U-2-OS human osteosarcoma cells; assay: In vitro model of sphingolipidosis (Niemann-Pick mimic), microplate readout at 680 nm and 480 nm; assay type: cell-based
Excerpt: Stable cell lines derived from patients with Niemann-Pick disease can not be found in cell line repositories, such as American Type […] Collection (Manassas, Va.), and are not readily available to the research community. Consequently, an in vitro tissue culture model of sphingolipidosis was devised using 2R,3S,4E)-N-methyl-5-(4′pentylphenyl)-2-aminopent-4-ene-1,3-diol, designated SK1-I (BML-258), a potent, water soluble, isozyme-specific inhibitor of sphingosine kinase-1. […] U-2-OS human osteosarcoma cells were seeded at 22,500 cells/well, grown overnight, and then treated with a final concentration of 0, 2.5, 5, 10 or 20 μM of SK1-I for 18.5 hours. Next, the cells were briefly treated with compound 1 and the nuclear Hoechst 33342 dye, as described in Example 7. Fluorescence signal was read on a BioTek Synergy Mx microplate reader at excitation values of 340 and 540 nm and emission values of 480 and 680 nm. […] Fluorescence microscope-based examination of the wells confirmed that compound 1 staining of the cells was confined to the vacuolar structures. This in vitro model confirms the feasibility of using the assay for detecting aberrant accumulation of sphingolipids in cells, and by extension the feasibility of using the assay in monitoring inherited lysosomal storage diseases, such as Niemann-Pick disease.

[8] = tested on: U2OS human osteosarcoma cells; assay: Fluorescence microscopy-based lysosomal perturbation assay (Dye 1 staining); assay type: cell-based; conditions: U2OS cells pre-treated with drug (chloroquine 8-64 μM, 18 hours), Dye 1 15 min
Procedure: (§1) U2OS human osteosarcoma cells were maintained in McCoy's 5a modified medium supplemented with 10% FBS and 100 units/ml penicillin/streptomycin (Invitrogen, Carlsbad, Calif.) in a humidified 37° C., 5% CO2 environment. Cells were allowed to proliferate on glass slides or were seeded into 96-well plates at a density of 2×10^4 cells/well and allowed to attach overnight. The cells were plated such that at the end of the experiment, they reached about 90% confluency.
The fluorescence-based lysosomal perturbation assay was established by first incubating cells cultivated on glass slides for 4-24 hours with chloroquine (8-64 μM final concentration), a well known phospholipidosis-inducing agent. Control cells were incubated with 0.1% (v/v) dimethyl sulfoxide (DMSO), which served as the vehicle control. Cells were then briefly (15 min) incubated with a combination of Dye 1 and Hoechst 33342 dye. Following incubation, cells grown on glass microscope slides were covered with glass coverslips, sealed with nail polish and observed using an inverted Axiovert 200M microscope (Carl Zeiss, Inc., Oberkochen, Germany). Images were acquired with a 63× objective lens (Zeiss).
Cells were subsequently stained with Dye 1 for 15 minutes. Nuclei were counter-stained with Hoechst 33342 dye. In FIG. 1, control U2OS cells are shown in (A), cells pre-treated for 18 hours with 8 μM chloroquine in (B), cells pre-treated for 18 hours with 16 μM chloroquine in (C) and cells pre-treated for 18 hours with 64 μM chloroquine in (D). This staining pattern was also consistently observed for other drugs that are known to induce phospholipidosis, such as chlorpromazine, fluoxetine, pimozide and verapamil (further described in Example 4). […] The ability of Dye 1 to detect vacuole accumulation in the described in vitro cell culture model mimicking Fabry disease strongly supports the present invention and its suitability for the detection of genetically derived lysosomal storage diseases.

HeLa cells = assay: Fluorescence microscopy lysosomal perturbation assay with Dye 6; assay type: cell-based; conditions: chloroquine 120 μM for 6 hours, Dye 6 15 min
Procedure: as §1, with “HeLa” for “U2OS human osteosarcoma”, “Dulbecco's” for “McCoy's 5a”, “modified Eagles” for “modified”, “FBS,” for “FBS and”, “Calif.) and MEM non essential amino acids” for “Calif.)”, “slides” for “slides or were seeded into 96-well plates”
The fluorescence-based lysosomal perturbation assay was established by first incubating cells cultivated on glass slides for 6 hours with chloroquine (120 μM final concentration), a well known phospholipidosis-inducing agent. Control cells were incubated with 0.1% (v/v) dimethyl sulfoxide (DMSO), which served as the vehicle control. Cells were then briefly (15 min) incubated with Dye 6 at room temperature. Following incubation, cells grown on glass microscope slides were covered with glass coverslips, sealed with nail polish and observed using an Olympus BX51 microscope. Images were acquired with a 40× objective lens. […] The untreated cells gave a low level of fluorescent staining.

[9] = Homo sapiens, 18 h, read-out: EC50 (Dye 1-based assay)

In the case of `CO/C1=C\C(C)=C\[C@@H](C)[C@@H](O)[C@@H](C)C/C(C)=C/C=C/[C@H](OC)[C@@H]([C@@H](C)[C@@H](O)[C@H](C)[C@@]2(O)C[C@@H](O)[C@H](C)[C@@H](C(C)C)O2)OC1=O` [Bafilomycin A1], the “vacuolation / expansion of lysosomal compartment detected by Lipid-Tox assay” value (U2OS cells [1]) is reported as “only Dye 1 identified the increased vacuolation”, the “green signal (CF-PE) relative to vehicle-treated controls” value (U2OS cells [2]) is reported as “low green signal” and the “red signal (Dye 1) relative to vehicle-treated controls” value (U2OS cells [2]) is reported as “increased red signal”. For the same compound, the “Relative Hoechst Stain (intensity of Hoechst 33342 fluorescence of treated cells compared to the untreated control; number of cells remaining)” value (U2OS cells [3]) was 58%, the “generalized cellular toxicity (loss of cells / decrease in Hoechst 33342 signal)” value (U2OS cells [3]) was “cytotoxic” and the “Relative Lyso Stain (intensity of Dye 1 fluorescence of treated cells compared to the untreated control)” value (from here on “Relative Lyso Stain”) (U2OS cells [4]) was 176%. For the same compound, the “vacuolation / expansion of lysosomal compartment detected by Dye 1 assay” value (from here on “vacuolation / expansion … by Dye 1 assay”) (U2OS cells [4]) was “increase vacuole number and volume”, the “vacuolation / expansion … by Dye 1 assay” value (U2OS cells [4]; listed as bafilomycin A) was “increased vacuolation” and the EC50 (U2OS cells [4]; read-out: calculated EC50 value in Dye 1 based assay, 24 hours treatment, Dye 1 15 minutes post drug) was 0.003 µM.
For `CN(C)CCNc1c(F)c(F)c(NCCN(C)C)c2c1C(=O)c1c(O)ccc(O)c1C2=O` [Dye 1, 1,4-bis(2-(dimethylamino)ethylamino)-2,3-difluoro-5,8-dihydroxyanthracene-9,10-dione], the “fluorescence emission intensity and wavelength maximum versus pH” value [5] was “not significantly altered”.
For `CN(C)CCCn1cc(C2=C(c3c[nH]c4ccccc34)C(=O)NC2=O)c2ccccc21` [GF-109203X], the “Relative Hoechst Stain (intensity of Hoechst 33342 fluorescence of treated cells compared to the untreated control; number of cells remaining)” value (U2OS cells [3]) was 87% and the “Relative Lyso Stain” value (U2OS cells [4]) was 197%.
In the case of `CC(C)NCC(O)COc1cccc2ccccc12` (stereo not drawn) [Propranolol (S-), Propranolol], the “time to half maximum uptake” value (cultured cells) is given as 4 to 10 min and the “time to steady state of cellular uptake” value (cultured cells) is given as 40 to 60 min.
For `CCCCOc1cc(CC2CNC(=O)N2)ccc1OC` (stereo not drawn) [Ro 20-1724], the “Relative Hoechst Stain (intensity of Hoechst 33342 fluorescence of treated cells compared to the untreated control; number of cells remaining)” value (U2OS cells [6]) was 53% and the “Relative Lyso Stain” value (U2OS cells [4]) was 190%.
With `Cn1cc(C2=C(c3cn(CCCSC(=N)N)c4ccccc34)C(=O)NC2=O)c2ccccc21` [Ro 31-8220] the “Relative Hoechst Stain (intensity of Hoechst 33342 fluorescence of treated cells compared to the untreated control; number of cells remaining)” value (U2OS cells [3]) was 89%, the “Relative Lyso Stain” value (U2OS cells [4]) was 146% and the “hit call in ICCB library screen (Dye 1 accumulation)” value (“hit call in ICCB library screen” for short) (U2OS cells [4]) was “positive hit”.
For `CC(=O)c1c(O)c(C)c(O)c(Cc2c(O)c3c(c(C(=O)/C=C/c4ccccc4)c2O)OC(C)(C)C=C3)c1O` [Rottlerin], the “Relative Hoechst Stain (intensity of Hoechst 33342 fluorescence of treated cells compared to the untreated control; number of cells remaining)” value (U2OS cells [3]) was 34%, the “generalized cellular toxicity (loss of cells / decrease in Hoechst 33342 signal)” value (U2OS cells [3]) was “generally cytotoxic” and the “generalized cellular toxicity (loss of cells / decrease in Hoechst 33342 signal)” value (U2OS cells [3]; listed as rottlerin) was “significant toxicity”. For the same compound, the “Relative Lyso Stain” value (U2OS cells [4]) was 187% and the “hit call in ICCB library screen” value (U2OS cells [4]) was “false positive hit”.
With `NC(=O)c1ccc(-c2nc(-c3ccc4c(c3)OCO4)c(-c3ccccn3)[nH]2)cc1` [SB-431542] the “Relative Hoechst Stain (intensity of Hoechst 33342 fluorescence of treated cells compared to the untreated control; number of cells remaining)” value (U2OS cells [6]) was 101%, the “Relative Lyso Stain” value (U2OS cells [4]) was 154% and the “hit call in ICCB library screen” value (U2OS cells [4]) was “positive hits”.
In the case of `CCCCCc1ccc(/C=C/[C@H](O)[C@@H](CO)NC)cc1` [SK1-I], the “emission values at 680 nm (accumulation of sphingolipids within the vacuolar compartment)” value ([7]; U-2-OS, 0, 2.5, 5, 10 or 20 μM for 18.5 hours) is reported as “Dose-dependent increases” and the “cell viability (480 nm emission intensity from Hoechst dye)” value ([7]; U-2-OS, 0-20 μM for 18.5 hours) is reported as “Cell viability was maintained under all treatment conditions”.
For `CC(C)(C)c1cc(C=C(C#N)C#N)cc(C(C)(C)C)c1O` [Tyrphostin 9], the “Relative Hoechst Stain (intensity of Hoechst 33342 fluorescence of treated cells compared to the untreated control; number of cells remaining)” value (U2OS cells [3]) was 31% and the “Relative Lyso Stain” value (U2OS cells [4]) was 200%.
With `CCN(CC)CCCC(C)Nc1ccnc2cc(Cl)ccc12` (stereo not drawn) [chloroquine] the “punctate pattern of cytoplasmic staining / levels of Dye 1 in the cells” value [8] was “increased in a dose-dependent manner”, the “vacuolation / expansion of lysosomal compartment detected by Lipid-Tox assay” value (U2OS cells [1]) was “induced an expansion in the lysosomal compartment” and the “fluorescence intensity of lysosomal staining with Dye 6” value (HeLa cells) was “increase in fluorescence intensity of lysosomal staining”. For the same compound, the “green signal (CF-PE) relative to vehicle-treated controls” value (U2OS cells [2]) was “increased green and red signal”, the “red signal (Dye 1) relative to vehicle-treated controls” value (U2OS cells [2]) was “increased green and red signal” and the “vacuolation / expansion … by Dye 1 assay” value (U2OS cells [4]) was “induced an expansion in the lysosomal compartment”. The EC50 (U2OS cells [4]; [9]) was 15 µM.
For `CN(C)CCCN1c2ccccc2Sc2ccc(Cl)cc21` [chlorpromazine], the “punctate pattern of cytoplasmic staining / levels of Dye 1 in the cells” value [8] was “increased in a dose-dependent manner” and the EC50 (U2OS cells [4]; [9]) was 6 µM.
In the case of `CNCCC(Oc1ccc(C(F)(F)F)cc1)c1ccccc1` (stereo not drawn) [fluoxetine], the “punctate pattern of cytoplasmic staining / levels of Dye 1 in the cells” value [8] is reported as “increased in a dose-dependent manner” and the “generalized cellular toxicity (loss of cells / decrease in Hoechst 33342 signal)” value (U2OS cells [6]) is reported as “toxic doses”.
With `O=c1[nH]c2ccccc2n1C1CCN(CCCC(c2ccc(F)cc2)c2ccc(F)cc2)CC1` [pimozide] the “generalized cellular toxicity (loss of cells / decrease in Hoechst 33342 signal)” value (U2OS cells [6]) was “toxic doses”.
In the case of `COc1ccc(CCN(C)CCCC(C#N)(c2ccc(OC)c(OC)c2)C(C)C)cc1OC` (stereo not drawn) [verapamil], the “punctate pattern of cytoplasmic staining / levels of Dye 1 in the cells” value [8] is reported as “increased in a dose-dependent manner” and the EC50 (U2OS cells [4]; [9]) is reported as 30 µM.
